Consider one compound from patent US20040152895A1, “Sulfonamides” (priority 2003, published 2004).

The target of the assay is T1, human and rat GPR-14 (UniProt Q9UKP6).
T1 sequence (Q9UKP6 1-389): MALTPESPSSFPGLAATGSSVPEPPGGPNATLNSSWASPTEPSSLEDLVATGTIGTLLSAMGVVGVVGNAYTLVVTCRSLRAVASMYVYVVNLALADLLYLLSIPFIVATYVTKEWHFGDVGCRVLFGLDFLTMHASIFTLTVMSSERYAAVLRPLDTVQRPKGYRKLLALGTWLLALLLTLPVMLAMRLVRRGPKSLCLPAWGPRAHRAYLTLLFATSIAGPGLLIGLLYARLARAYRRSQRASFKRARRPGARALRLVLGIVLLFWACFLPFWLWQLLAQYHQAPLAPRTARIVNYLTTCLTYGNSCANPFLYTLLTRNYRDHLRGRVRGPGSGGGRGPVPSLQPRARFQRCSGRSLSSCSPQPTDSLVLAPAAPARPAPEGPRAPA
Description: Radioligand binding assay ([125I] h-U-II). The following applies: HEK-293 cell membranes, 200 pM [125I] h-U-II. How it is done: HEK-293 cell membranes containing stable cloned human and rat GPR-14 (20 ug/assay) were incubated with 200 pM [125I] h-U-II (200 Ci/mmol^−1 in the presence of increasing concentrations of test compounds in DMSO (0.1 nM to 10 uM), in a final incubation volume of 200 ul (20 mM Tris-HCl, 5 mM MgCl2). Incubation was done for 30 minutes at room temperature followed by filtration GF/B filters with Brandel cell harvester. ^125I labeled U-II binding was quantitated by gamma counting. Nonspecific binding was defined by ^125I U-II binding in the presence of 100 nM of unlabeled human U-II. Analysis of the data was performed by nonlinear least square fitting.

For orientation: Ki means the equilibrium dissociation constant of an inhibitor or competing ligand from its target. Read a low Ki as higher affinity. `CCCSc1ncc(S(=O)(=O)Nc2ccc(Cl)c(OCCN(C)C)c2)c(OC)n1` [Example 1, 4-methoxy-2-propylsulfanyl-pyrimidine-5-sulfonic Acid [4-chloro-3-(2-dimethylamino-ethoxy)-phenyl]-amide] returned a Ki of 220 nM.
